Test results taken from US20090155869A1 (Gevo, Inc., priority 2006, published 2009).

Assays:
[1] = biological target: T1, M. elsdenii Bcd (Megasphaera elsdenii, UniProt Q06319); conditions: inhibition of M. elsdenii Bcd; cited from earlier work
T1 sequence (Q06319 1-383): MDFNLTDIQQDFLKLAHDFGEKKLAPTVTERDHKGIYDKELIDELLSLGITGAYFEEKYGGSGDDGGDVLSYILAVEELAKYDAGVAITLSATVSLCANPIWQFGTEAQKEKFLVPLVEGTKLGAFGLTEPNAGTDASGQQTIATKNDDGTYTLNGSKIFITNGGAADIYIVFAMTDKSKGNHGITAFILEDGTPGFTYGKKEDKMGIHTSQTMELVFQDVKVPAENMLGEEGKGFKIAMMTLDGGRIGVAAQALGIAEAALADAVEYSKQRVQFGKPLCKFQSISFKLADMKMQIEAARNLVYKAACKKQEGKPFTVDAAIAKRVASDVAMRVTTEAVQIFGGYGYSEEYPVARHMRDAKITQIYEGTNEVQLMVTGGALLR

[2] = biological target: crotonase (Crt) from C. acetobutylicum (Clostridium acetobutylicum, UniProt P52046); conditions: crotonyl-CoA as substrate of C. acetobutylicum crotonase; cited from earlier work
[3] = tested on: Bcd; conditions: read-out: Km of Bcd for butyryl-CoA; unit inferred; cited from earlier work
[4] = tested on: C. acetobutylicum P262 Bcd; conditions: read-out: Km of the C. acetobutylicum P262 Bcd for butyryl-CoA; cited from earlier work
[5] = in-vitro activity assay of Hbd homologues in lysate, NADH consumption at 340 nm; format: biochemical; conditions: lysate of GEVO768 (E. coli W3110Z1) transformant, 0.1 mM acetoacetyl CoA, 0.2 mM NADH, pH 7.0
From the text: (§1) In particular, homologues of the pathway enzymes hydroxyl butyryl CoA dehydrogenase (Hbd), crotonase (Crt) and thiolase (Th1) were expressed and compared by in-vitro activity assay. The hydroxyl butyryl CoA dehydrogenase homologues tested were pGV1037 (Hbd from Clostridium acetobutylicum), pGV1041 (Hbd from Butyrivibrio fibrisolvens), pGV1050 (Hbd from Clostridium beijerinkii), and pGV1154 (Hbd from Clostridium acetobutylicum, codon optimized gene sequence). The crotonase homologues tested were pGV1040 (Crt from Butyrivibrio fibrisolvens), pGV1049 (Crt from Clostridium beijerinkii), pGV1094 (Crt from Clostridium acetobutylicum) and pGV1189 (Crt from Clostridium acetobutylicum, codon optimized gene sequence). The thiolase homologues tested were pGV1035 (Th1 from Clostridium acetobutylicum), pGV1039 (Th1 from Butyrivibrio fibrisolvens), and pGV1188 (Th1 from Clostridium acetobutylicum, codon optimized gene sequence). The genes were expressed and assayed as per the following outlined protocol
(§2) GEVO768 (E. coli W3110Z1) was transformed with each of the plasmids and the transformants were plated on LB media with 100 μg/mL of chloramphenicol. The plates were incubated at 37° C. for 14-16 hours. Single colonies of the clones were used to inoculate 3 mL of LB media with 100 μg/mL of chloramphenicol. The cultures were incubated overnight at 37° C. at 250 rpm. The overnight cultures were used to inoculate 50 mL of EZ-rich medium in shake flasks with 100 μg/mL of chloramphenicol. The cultures were incubated at 37° C. at 250 rpm. At mid-exponential growth phase (OD600 0.6-0.8) the cultures were induced with 1 mM IPTG. […]
(§3) To test the activity of Hbd, 10 μL of the lysate was added to 190 μL of 50 mM MOPS pH 7.0 buffer containing 0.1 mM acetoacetyl CoA, and 0.2 mM NADH. The activity of Hbd was measured by monitoring the consumption of NADH at 340 nm. […] Enzyme activity was measured by monitoring the consumption of crotonyl CoA at 263 nm. […] Enzyme activity was measured by monitoring the consumption of acetoacetyl CoA at 303 nm. […]

[6] = in-vitro activity assay of Crt homologues in lysate, crotonyl CoA consumption at 263 nm; format: biochemical; conditions: lysate of GEVO768 (E. coli W3110Z1) transformant, 30 μM crotonyl CoA, pH 7.6
From the text: as §1, §2, §3

## CC(=O)CC(=O)O [acetoacetate]
[1]
  Ki: 0.1 µM

## C/C=C/C(=O)SCCNC(=O)CCNC(=O)[C@H](O)C(C)(C)COP(=O)(O)OP(=O)(O)OC[C@H]1O[C@@H](n2cnc3c(N)ncnc32)[C@H](O)[C@@H]1OP(=O)(O)O [crotonyl-CoA]
[2]
  Km: 30 µM
  Vmax: 6.5×10^6 moles per min per mole

## CCCC(=O)SCCNC(=O)CCNC(=O)[C@H](O)C(C)(C)COP(=O)(O)OP(=O)(O)OC[C@H]1O[C@@H](n2cnc3c(N)ncnc32)[C@H](O)[C@@H]1OP(=O)(O)O [butyryl-CoA]
[3]
  Km: 5 µM
[4]
  Km: ~6 µM

## pGV1154: plasmid-expressed Hbd from Clostridium acetobutylicum, codon optimized gene sequence
[5]
  Specific activity (Hbd): 11.69 nmol/min/μg total cell protein
[5]; listed as Hbd
  Specific activity (Hbd): 11.6 nmol/min/μg total cell protein

## pGV1037: plasmid-expressed Hbd from Clostridium acetobutylicum
[5]
  Specific activity (Hbd): 3.51 nmol/min/μg total cell protein

B1: GV1189: plasmid-expressed Crt from Clostridium acetobutylicum, codon optimized gene sequence (protein, UniProt P52046 1-261, looked up)
Short-chain-enoyl-CoA …: MELNNVILEKEGKVAVVTINRPKALNALNSDTLKEMDYVIGEIENDSEVLAVILTGAGEKSFVAGADISEMKEMNTIEGRKFGILGNKVFRRLELLEKPVIAAVNGFALGGGCEIAMSCDIRIASSNARFGQPEVGLGITPGFGGTQRLSRLVGMGMAKQLIFTAQNIKADEALRIGLVNKVVEPSELMNTAKEIANKIVSNAPVAVKLSKQAINRGMQCDIDTALAFESEAFGECFSTEDQKDAMTAFIEKRKIEGFKNR
[6]
  Specific activity (Crt): 916.99 nmol/min/μg total cell protein
[6]; listed as crotonase
  Specific activity (Crt): 1178 nmol/min/μg total cell protein

B2: pGV1094: plasmid-expressed Crt from Clostridium acetobutylicum (protein, UniProt P52046 1-261, looked up)
Short-chain-enoyl-CoA …: MELNNVILEKEGKVAVVTINRPKALNALNSDTLKEMDYVIGEIENDSEVLAVILTGAGEKSFVAGADISEMKEMNTIEGRKFGILGNKVFRRLELLEKPVIAAVNGFALGGGCEIAMSCDIRIASSNARFGQPEVGLGITPGFGGTQRLSRLVGMGMAKQLIFTAQNIKADEALRIGLVNKVVEPSELMNTAKEIANKIVSNAPVAVKLSKQAINRGMQCDIDTALAFESEAFGECFSTEDQKDAMTAFIEKRKIEGFKNR
[6]
  Specific activity (Crt): 83.39 nmol/min/μg total cell protein
